From patent US20160340656A1, “PEPTIDES DERIVED FROM GSE 24.2 FOR TREATING DISEASES CAUSED BY OXIDATIVE STRESS AND DAMAGE TO DNA” (CONSEJO SUPERIOR DE INVESTIGACIONES CIENTÍFICAS (CSIC), priority 2013, published 2016) come the findings set out here.

Common to all, as to assay type: cell-based, human
Experiment [1] has as its system p38 MAP kinase (phosphorylated on Thr180/Try182) in AT719 cells. Put plainly: Levels of phosphorylated p38 by Western blot in AT cells. As to conditions: three weeks after infection, control AT736 = 1. The source says: FIG. 4. Determination of the levels of phosphorylation of p38 in AT cells: AT719-P AT cells were infected with a lentiviral vector expressing GSE24.2 or a GFP empty vector and three weeks later protein extracts were obtained. AT719-P AT cells infected with GSE24.2 were also used and the population with the maximum fluorescence was selected using a sorter (AT AT719-P GSE24.2 sorter). AT736C cells were used as a control. The proteins were resolved on polyacrylamide gels and transferred to nitrocellulose membranes. The membrane was hybridised with a polyclonal antibody against the protein p38 phosphorylated on Thr180/Try182 and non-phosphoryated protein as a loading control. The relative values between the phosphorylated and non-phosphorylated proteins obtained (using the NIH-Image program) for the control cell line were considered as 1 and the others referred to it.
One of the characteristics of AT patient cells is a higher activation of p38 MAP kinase due to the failure of function of the ATM protein. This increase in activation of p38 triggers the process of cell death in AT cells and therefore a reduction in the number of neuronal cells. […] The signal obtained in both hybridisations was quantified with the NIH-Image program and relative values between the phosphorylated and non-phosphorylated proteins obtained for the control cell line were considered as 1.
Background: Immunoblotting shows a protein as a band on a membrane.

Experiment [2] relates to AT3487 cells from patients with ataxia telangiectasia. The experiment can be described thus: Damage to DNA in AT cells: phosphorylated histone H2AX (Ser139) foci after lentiviral expression of GSE24.2. As for the experimental part: FIG. 1. Determination of damage to DNA in AT cells: AT3784 AT cells were infected with a lentiviral vector expressing GSE24.2 or a GFP empty vector and were fixed 24 hours later to be processed and hybridised with an antibody against phosphorylated histone H2AX (Ser139). Control C-1787 cells were used as the negative control. Next they were hybridised with a fluorescein-labelled antibody and were stained with DAPI to locate the nuclei.
To perform this test, cell lines from patients with ataxia telangiectasia (AT, from the Coriell repository) with a mutation in the gene ATM and denominated AT3487 were used. Cell line C-1787 was used as the control cell line. The cells were infected with the bicistronic lentiviral vector pCMV-GFP-GSE24.2. After 48 hours of infection the cells were fixed with formaldehyde and then permeabilized by treating them with Triton X-100. The damage to DNA was estimated by studying the signal after hybridisation of the cells with an antibody against histone H2AX Ser139 and subsequent hybridisation with an antibody bound to fluorescein. The number of foci with stain for histone H2AX/nucleus was determined by confocal microscopy in a total of 200 cells and the data represented as a percentage of cells with a specific number of foci.

The subject of experiment [3] is IL6. Put plainly: Expression of proinflammatory cytokine IL6 in AT719-P cells. The settings on record: relative to β-actin. As for the experimental part: FIG. 12. Levels of expression of proinflammatory cytokines in ataxia telangiectasia cells after expressing peptides GSE24.2 and GSE4. AT719-P AT cells were infected with a lentiviral vector expressing GSE24.2, GSE4 or a GFP empty vector and three weeks later the RNA was extracted and after obtaining the corresponding cDNA, the levels of expression of the proinflammatory cytokines IL6 and IL8 were determined. AT736C cells were used as a control. The levels of expression of the gene β-actin were measured as control of expression. The results are expressed as the relative increase in the number of times of expression of each of the genes compared to β-actin, considering the levels of expression of AT736C cells as 1.
As the peptide denominated GSE4 was smaller than the peptides with ability to repair telomerase activity, we studied if it had the same activity as peptide GSE24.2 for attenuating oxidative stress, expression of proinflammatory cytokines and repairing the senescence in ataxia telangiectasia cells. […] Finally, given that the increase in expression of the interleukins IL6 and IL8 are associated with a secretory phenotype linked to senescence in ataxia telangiectasia, we evaluated the ability of both peptides GSE24.2 and GSE4 to reduce senescence by evaluating senescence-associated β-galactosidase activity (SA-beta-Gal) (FIG. 13).

The mark [4] stands for this setting: 200 cells, lentiviral expression of GSE24.2.

Regarding “GFINLDKPSNPSSHEVVAWIRRILRVEKTGHSGTLDPKVTGCLIVCIERATRLVK (GSE24.2; listed as Homo sapiens) [55-amino-acid peptide corresponding to the protein dyskerin; known from WO2007/090911]”, in experiment [1], the “phosphorylated / non-phosphorylated p38 relative value” is “reduced significantly to levels similar to control cells”. Further, in experiment [2], the “correction of overall damage to DNA” value stood at 40%. Moreover, in experiment [2] (setting [4]), the “AT cells in which levels of damage to DNA are reduced” value came out at 25% and the “AT cells in which overall damage to DNA is fully corrected” value is 20%.

Turning to GFINLDKPSNP [GSE4], the “reduction of levels of expression of IL6” value in experiment [3] is on record as 80%.
